# Assays:
# KRASwt = biological target: T1, KRASwt (Homo sapiens, UniProt P01116); test: Bio-Biochem-PPI-HTRF Ras-SOS1 interaction assay (KRAS wt); type: biochemical; conditions: 5 nM
# T1 construct: made in house; host or cells: E. coli BL21 (DE3)
# Summary of the method: (§1)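 Inhibition of His-hSOS1 binding to GST-tagged wild-type or G12D K-Ras is read as HTRF ratio (665/620 nm) following incubation of about 10 minutes or longer, and IC50 values are fitted from duplicate six-point titrations.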
# KRASG12D = biological target: T2, KRASG12D (Homo sapiens, UniProt P01116, G12D); test: Bio-Biochem-PPI-HTRF Ras-SOS1 interaction assay (KRAS G12D); type: biochemical; conditions: 5 nM
# T2 construct: made in house; host or cells: E. coli BL21 (DE3)
# T2 sequence (P01116 1-188 isoform P01116-2 G12D): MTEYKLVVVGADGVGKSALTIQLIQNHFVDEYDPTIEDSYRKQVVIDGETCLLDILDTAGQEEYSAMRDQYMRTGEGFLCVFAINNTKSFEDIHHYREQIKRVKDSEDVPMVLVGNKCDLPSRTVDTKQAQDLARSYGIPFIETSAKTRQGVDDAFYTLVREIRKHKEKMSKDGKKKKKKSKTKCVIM
# Summary of the method: as §1
# T1 sequence (P01116 1-188 isoform P01116-2): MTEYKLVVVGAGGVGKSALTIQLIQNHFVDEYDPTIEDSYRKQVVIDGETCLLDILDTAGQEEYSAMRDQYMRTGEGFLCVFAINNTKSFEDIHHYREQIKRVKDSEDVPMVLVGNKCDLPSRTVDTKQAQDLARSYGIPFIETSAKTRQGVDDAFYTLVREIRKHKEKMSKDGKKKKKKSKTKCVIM
SMILES,IC50 (KRASwt) [µM],IC50 (KRASG12D) [µM]
"N#Cc1c(N)sc2c(F)ccc(-c3c(Cl)cc4c(N5CCOC6(CN(C(=O)C(F)Cl)C6)C5)nc(OC[C@@]56CCCN5C[C@H](F)C6)nc4c3F)c12 (stereo partly drawn) [compound 200, 2-amino-4-(6-chloro-4-(2-(2-chloro-2-fluoroacetyl)-5-oxa-2,8-diazaspiro[3.5]nonan-8-yl)-8-fluoro-2-(((2R,7aS)-2-fluorotetrahydro-1H-pyrrolizin-7a(5H)-yl)methoxy)quinazolin-7-yl)-7-fluorobenzo[b]thiophene-3-carbonitrile]",< 5,< 5
"N#Cc1c(N)sc2c(F)ccc(-c3c(Cl)cc4c(N5CCCCC6(CN(C(=O)[C@H]7[C@@H]8COC[C@@H]87)C6)C5)nc(OCC56CCCN5C[C@H](F)C6)nc4c3F)c12 (stereo partly drawn) [compound 192, 4-(4-(2-((1R,5S,6r)-3-oxabicyclo[3.1.0]hexane-6-carbonyl)-2,6-diazaspiro[3.6]decan-6-yl)-6-chloro-8-fluoro-2-(((2R,7aS)-2-fluorotetrahydro-1H-pyrrolizin-7a(5H)-yl)methoxy)quinazolin-7-yl)-2-amino-7-fluorobenzo [b]thiophene-3-carbonitrile]",< 5,< 5
"N#Cc1c(N)sc2c(F)ccc(-c3c(Cl)cc4c(N5CCCCC6(CN(C(=O)[C@H]7CCOC7)C6)C5)nc(OC[C@@]56CCCN5C[C@H](F)C6)nc4c3F)c12 [compound 319, 2-amino-4-(6-chloro-8-fluoro-2-(((2R,7aS)-2-fluorotetrahydro-1H-pyrrolizin-7a(5H)-yl)methoxy)-4-(2-((S)-tetrahydrofuran-3-carbonyl)-2,6-diazaspiro[3.6]decan-6-yl)quinazolin-7-yl)-7-fluorobenzo[b]thiophene-3-carbonitrile]",< 5,< 5
"N#Cc1c(N)sc2c(F)ccc(-c3c(Cl)cc4c(N5CC(F)(F)C6(CN(C(=O)C(F)F)C6)C5)nc(OC[C@@]56CCCN5C[C@H](F)C6)nc4c3F)c12 [compound 330, 2-amino-4-(6-chloro-4-(2-(2,2-difluoroacetyl)-8,8-difluoro-2,6-diazaspiro [3.4]octan-6-yl)-8-fluoro-2-(((2R,7aS)-2-fluorotetrahydro-1H-pyrrolizin-7a(5H)-yl)methoxy)quinazolin-7-yl)-7-fluorobenzo[b]thiophene-3-carbonitrile]",< 5,< 5
"Cn1nccc1C(=O)N1CC2(CCCCN(c3nc(OC[C@@]45CCCN4C[C@H](F)C5)nc4c(F)c(-c5ccc(F)c6sc(N)c(C#N)c56)c(Cl)cc34)C2)C1 [compound 134, 2-amino-4-(6-chloro-8-fluoro-2-(((2R,7aS)-2-fluorotetrahydro-1H-pyrrolizin-7a(5H)-yl)methoxy)-4-(2-(1-methyl-1H-pyrazole-5-carbonyl)-2,6-diazaspiro[3.6]decan-6-yl)quinazolin-7-yl)-7-fluorobenzo[b]thiophene-3-carbonitrile]",< 5,< 5
"Cc1ccnc(C(C)C)c1-n1c(=O)nc(N2CCOC3(CNC3)C2)c2cc(F)c(-c3c(O)cccc3F)nc21 [compound 112, 6-fluoro-7-(2-fluoro-6-hydroxyphenyl)-1-(2-isopropyl-4-methylpyridin-3-yl)-4-(5-oxa-2,8-diazaspiro[3.5]nonan-8-yl)pyrido[2,3-d]pyrimidin-2(1H)-one]",≥ 5,≥ 5
"C[C@@H]1CN(C(=O)N2CC3(CCCCN(c4nc(OC[C@@]56CCCN5C[C@H](F)C6)nc5c(F)c(-c6ccc(F)c7sc(N)c(C#N)c67)c(Cl)cc45)C3)C2)CCO1 [compound 322, 2-amino-4-(6-chloro-8-fluoro-2-(((2R,7aS)-2-fluorotetrahydro-1H-pyrrolizin-7a(5H)-yl)methoxy)-4-(2-((R)-2-methylmorpholine-4-carbonyl)-2,6-diazaspiro[3.6]decan-6-yl)quinazolin-7-yl)-7-fluorobenzo[b]thiophene-3-carbonitrile]",< 5,< 5
"N#Cc1c(N)sc2c(F)ccc(-c3c(Cl)cc4c(N5CC(O)CCC6(CN(C(=O)[C@@H]7CC7(F)F)C6)C5)nc(OC[C@@]56CCCN5C[C@H](F)C6)nc4c3F)c12 (stereo partly drawn) [compound 275, 2-amino-4-(6-chloro-4-(2-((S)-2,2-difluorocyclopropane-1-carbonyl)-8-hydroxy-2,6-diazaspiro[3.6]decan-6-yl)-8-fluoro-2-(((2R,7aS)-2-fluorotetrahydro-1H-pyrrolizin-7a(5H)-yl)methoxy)quinazolin-7-yl)-7-fluorobenzo[b]thiophene-3-carbonitrile]",< 5,< 5
"N#Cc1c(N)sc2c(F)ccc(-c3c(Cl)cc4c(N5CCCCC6(CN(C(=O)N7CCOCC7)C6)C5)nc(OC[C@@]56CCCN5C[C@H](F)C6)nc4c3F)c12 [compound 325, 2-amino-4-(6-chloro-8-fluoro-2-(((2R,7aS)-2-fluorotetrahydro-1H-pyrrolizin-7a(5H)-yl)methoxy)-4-(2-(morpholine-4-carbonyl)-2,6-diazaspiro[3.6]decan-6-yl)quinazolin-7-yl)-7-fluorobenzo[b]thiophene-3-carbonitrile]",< 5,< 5
"CC(C)C(=O)N1CC2(CCCCN(c3nc(OC[C@@]45CCCN4C[C@H](F)C5)nc4c(F)c(-c5ccc(F)c6sc(N)c(C#N)c56)c(Cl)cc34)C2)C1 [compound 197, 2-amino-4-(6-chloro-8-fluoro-2-(((2R,7aS)-2-fluorotetrahydro-1H-pyrrolizin-7a(5H)-yl)methoxy)-4-(2-isobutyryl-2,6-diazaspiro[3.6]decan-6-yl)quinazolin-7-yl)-7-fluorobenzo[b]thiophene-3-carbonitrile]",< 5,< 5
"Cn1nc(C(F)F)cc1C(=O)N1CC2(CCCCN(c3nc(OC[C@@]45CCCN4C[C@H](F)C5)nc4c(F)c(-c5ccc(F)c6sc(N)c(C#N)c56)c(Cl)cc34)C2)C1 [compound 343, 2-amino-4-(6-chloro-4-(2-(3-(difluoromethyl)-1-methyl-1H-pyrazole-5-carbonyl)-2,6-diazaspiro[3.6]decan-6-yl)-8-fluoro-2-(((2R,7aS)-2-fluorotetrahydro-1H-pyrrolizin-7a(5H)-yl)methoxy)quinazolin-7-yl)-7-fluorobenzo[b]thiophene-3-carbonitrile]",< 5,< 5
"N#Cc1c(N)sc2c(F)ccc(-c3c(Cl)cc4c(N5CCCCC6(CN(C(=O)C(F)F)C6)C5)nc(OC[C@@]56CCCN5C[C@H](F)C6)nc4c3F)c12 [compound 317, 2-amino-4-(6-chloro-4-(2-(2,2-difluoroacetyl)-2,6-diazaspiro[3.6]decan-6-yl)-8-fluoro-2-(((2R,7aS)-2-fluorotetrahydro-1H-pyrrolizin-7a(5H)-yl)methoxy)quinazolin-7-yl)-7-fluorobenzo[b]thiophene-3-carbonitrile]",< 5,< 5
"N#Cc1c(N)sc2c(F)ccc(-c3c(Cl)cc4c(N5CCOC6(CN(C(=O)N7CC(C#N)C7)C6)C5)nc(OC[C@@]56CCCN5C[C@H](F)C6)nc4c3F)c12 [compound 257, 1-(8-(7-(2-amino-3-cyano-7-fluorobenzo[b]thiophen-4-yl)-6-chloro-8-fluoro-2-(((2R,7aS)-2-fluorotetrahydro-1H-pyrrolizin-7a(5H)-yl)methoxy)quinazolin-4-yl)-5-oxa-2,8-diazaspiro[3.5]nonane-2-carbonyl)azetidine-3-carbonitrile]",< 5,< 5

# Source: patent publication US20240109918A1, “HETEROCYCLIC COMPOUNDS AND USES THEREOF” (Kumquat Biosciences Inc., priority 2022, published 2024)
